# In PubChem BioAssay (NCI):
#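 Compound exposure: 48 hours, 5 concentrations, 96-well plates. Definition used: TGI = concentration required for complete inhibition of growth.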
# Tests used:
# Assay in all cases: growth of human tumour cells (NCI), 48 h
# [1] = tested on: SN12C renal
# [2] = tested on: SR leukemia
# [3] = tested on: COLO 205 colon
# [4] = tested on: HT29 colon
# [5] = tested on: M14 melanoma
# [6] = tested on: SNB-19 CNS
# [7] = tested on: DLD-1 colon
# [8] = tested on: HOP-18 NSCLC
# [9] = tested on: RPMI-8226 leukemia
# [10] = tested on: ACHN renal
# [11] = tested on: HOP-62 NSCLC
# [12] = tested on: CCRF-CEM leukemia
# [13] = tested on: UO-31 renal
# [14] = tested on: MOLT-4 leukemia
# [15] = tested on: HCC-2998 colon
# [16] = tested on: NCI-H226 lung
# [17] = tested on: M19-MEL melanoma
# [18] = tested on: TK-10 renal
# [19] = tested on: SK-MEL-5 melanoma
# [20] = tested on: MALME-3M melanoma
# [21] = tested on: LOX IMVI melanoma
# [22] = tested on: KM12 colon
# [23] = tested on: SK-OV-3 ovarian
# [24] = tested on: DMS 114 small cell lung
# [25] = tested on: OVCAR-5 ovarian
# [26] = tested on: HL-60(TB) leukemia
# [27] = tested on: 786-0 renal
# [28] = tested on: SF-295 CNS
# [29] = tested on: OVCAR-4 ovarian
# [30] = tested on: XF 498 CNS
# [31] = tested on: SW-620 colon
# [32] = tested on: SNB-75 CNS
# [33] = tested on: RXF 393 renal
# [34] = tested on: UACC-62 melanoma
# [35] = tested on: UACC-257 melanoma
# [36] = tested on: SK-MEL-2 melanoma
# [37] = tested on: HCT-15 colon
# [38] = tested on: SF-539 CNS
# [39] = tested on: SF-268 CNS
# [40] = tested on: A549 NSCLC
# [41] = tested on: NCI-H522 lung
# [42] = tested on: DMS 273 small cell lung
# [43] = tested on: NCI-H460 lung
# [44] = tested on: HCT-116 colon
# [45] = tested on: LXFL 529 NSCLC
# [46] = tested on: NCI-H23 lung
# [47] = tested on: OVCAR-3 ovarian
# [48] = tested on: SNB-78 CNS
# [49] = tested on: SK-MEL-28 melanoma
# [50] = tested on: EKVX NSCLC
# [51] = tested on: U251 CNS
# [52] = tested on: HOP-92 NSCLC
# [53] = tested on: K-562 leukemia
# [54] = tested on: KM20L2 colon
# [55] = tested on: CAKI-1 renal
# [56] = tested on: OVCAR-8 ovarian
# [57] = tested on: A498 renal
# [58] = tested on: RXF-631 renal
# [59] = tested on: IGROV1 ovarian
smiles,measurement,setting,value
COc1cc(C=C2C(=O)NC(=O)NC2=O)cc(OC)c1OC,TGI,[1],> 100 µM
same,TGI,[2],> 100 µM
same,TGI,[3],> 100 µM
same,TGI,[4],> 100 µM
same,TGI,[5],> 100 µM
same,TGI,[6],> 100 µM
same,TGI,[7],> 100 µM
same,TGI,[8],> 100 µM
same,TGI,[9],> 100 µM
same,TGI,[10],> 100 µM
same,TGI,[11],> 100 µM
same,TGI,[12],> 100 µM
same,TGI,[13],> 100 µM
same,TGI,[14],> 100 µM
same,TGI,[15],> 100 µM
same,TGI,[16],> 100 µM
same,TGI,[17],> 100 µM
same,TGI,[18],> 100 µM
same,TGI,[19],> 100 µM
same,TGI,[20],> 100 µM
same,TGI,[21],> 100 µM
same,TGI,[22],> 100 µM
same,TGI,[23],> 100 µM
same,TGI,[24],> 100 µM
same,TGI,[25],> 100 µM
same,TGI,[26],> 100 µM
same,TGI,[27],> 100 µM
same,TGI,[28],> 100 µM
same,TGI,[29],> 100 µM
same,TGI,[30],> 100 µM
same,TGI,[31],> 100 µM
same,TGI,[32],> 100 µM
same,TGI,[33],> 100 µM
same,TGI,[34],> 100 µM
same,TGI,[35],> 100 µM
same,TGI,[36],> 100 µM
same,TGI,[37],> 100 µM
same,TGI,[38],> 100 µM
same,TGI,[39],> 100 µM
same,TGI,[40],> 100 µM
same,TGI,[41],> 100 µM
same,TGI,[42],> 100 µM
same,TGI,[43],> 100 µM
same,TGI,[44],> 100 µM
same,TGI,[45],> 100 µM
same,TGI,[46],> 100 µM
same,TGI,[47],> 100 µM
same,TGI,[48],> 100 µM
same,TGI,[49],> 100 µM
same,TGI,[50],> 100 µM
same,TGI,[51],> 100 µM
same,TGI,[52],> 100 µM
same,TGI,[53],> 100 µM
same,TGI,[54],> 100 µM
same,TGI,[55],> 100 µM
same,TGI,[56],> 100 µM
CC1(C)SCc2nc3ncccc3n21,TGI,[1],> 100 µM
same,TGI,[3],> 100 µM
same,TGI,[4],> 100 µM
same,TGI,[5],> 100 µM
same,TGI,[7],> 100 µM
same,TGI,[9],> 100 µM
same,TGI,[10],> 100 µM
same,TGI,[57],> 100 µM
same,TGI,[58],> 100 µM
same,TGI,[11],> 100 µM
same,TGI,[12],> 100 µM
same,TGI,[13],> 100 µM
same,TGI,[14],> 100 µM
same,TGI,[15],> 100 µM
same,TGI,[16],> 100 µM
same,TGI,[17],> 100 µM
same,TGI,[18],> 100 µM
same,TGI,[19],> 100 µM
same,TGI,[20],> 100 µM
same,TGI,[21],> 100 µM
same,TGI,[22],> 100 µM
same,TGI,[23],> 100 µM
same,TGI,[24],> 100 µM
same,TGI,[25],> 100 µM
same,TGI,[26],> 100 µM
same,TGI,[27],> 100 µM
same,TGI,[28],> 100 µM
same,TGI,[29],> 100 µM
same,TGI,[30],> 100 µM
same,TGI,[31],> 100 µM
same,TGI,[32],> 100 µM
same,TGI,[33],> 100 µM
same,TGI,[34],> 100 µM
same,TGI,[35],> 100 µM
same,TGI,[36],> 100 µM
same,TGI,[37],> 100 µM
same,TGI,[38],> 100 µM
same,TGI,[39],> 100 µM
same,TGI,[40],> 100 µM
same,TGI,[41],> 100 µM
same,TGI,[59],> 100 µM
same,TGI,[43],> 100 µM
same,TGI,[45],> 100 µM
same,TGI,[46],> 100 µM
same,TGI,[47],> 100 µM
same,TGI,[48],> 100 µM
same,TGI,[49],> 100 µM
same,TGI,[50],> 100 µM
same,TGI,[51],> 100 µM
same,TGI,[52],> 100 µM
same,TGI,[53],> 100 µM
same,TGI,[54],> 100 µM
same,TGI,[55],> 100 µM
same,TGI,[56],> 100 µM
CCOc1ccccc1N=Nc1ccc2oc(=O)c(C(=O)Nc3cccc(C)c3)cc2c1,TGI,[1],> 100 µM
same,TGI,[3],71.8 µM
same,TGI,[4],> 100 µM
same,TGI,[5],59.5 µM
same,TGI,[6],99.4 µM
same,TGI,[7],> 100 µM
same,TGI,[9],> 100 µM
same,TGI,[57],> 100 µM
same,TGI,[58],> 100 µM
same,TGI,[11],> 100 µM
same,TGI,[12],83.8 µM
same,TGI,[13],> 100 µM
same,TGI,[14],80.2 µM
same,TGI,[15],96.9 µM
same,TGI,[17],93.4 µM
same,TGI,[18],> 100 µM
same,TGI,[19],32.8 µM
same,TGI,[20],> 100 µM
same,TGI,[21],61.6 µM
same,TGI,[22],> 100 µM
same,TGI,[23],> 100 µM
same,TGI,[24],63.4 µM
same,TGI,[25],> 100 µM
same,TGI,[26],63.3 µM
same,TGI,[27],> 100 µM
same,TGI,[28],> 100 µM
same,TGI,[29],79.4 µM
same,TGI,[30],> 100 µM
same,TGI,[31],> 100 µM
same,TGI,[32],> 100 µM
same,TGI,[34],> 100 µM
same,TGI,[35],> 100 µM
same,TGI,[36],46.9 µM
same,TGI,[37],> 100 µM
same,TGI,[38],91.1 µM
same,TGI,[39],> 100 µM
same,TGI,[40],> 100 µM
same,TGI,[41],57.1 µM
same,TGI,[59],> 100 µM
same,TGI,[42],> 100 µM
same,TGI,[44],51.7 µM
same,TGI,[45],> 100 µM
same,TGI,[46],94.7 µM
same,TGI,[47],62.4 µM
same,TGI,[48],91.3 µM
same,TGI,[49],72.3 µM
same,TGI,[50],95.2 µM
same,TGI,[51],81.2 µM
same,TGI,[53],88 µM
same,TGI,[54],> 100 µM
same,TGI,[55],> 100 µM
same,TGI,[56],86 µM
C[C@@H]1CC(=O)C2CCCC1C2=O (some centres not stated),TGI,[1],> 100 µM
same,TGI,[2],> 100 µM
same,TGI,[3],> 100 µM
same,TGI,[4],> 100 µM
same,TGI,[5],> 100 µM
same,TGI,[6],> 100 µM
same,TGI,[7],> 100 µM
same,TGI,[8],> 100 µM
same,TGI,[9],> 100 µM
same,TGI,[10],> 100 µM
same,TGI,[57],> 100 µM
same,TGI,[58],> 100 µM
same,TGI,[11],> 100 µM
same,TGI,[12],> 100 µM
same,TGI,[13],> 100 µM
same,TGI,[14],> 100 µM
same,TGI,[15],> 100 µM
same,TGI,[16],> 100 µM
same,TGI,[17],> 100 µM
same,TGI,[18],> 100 µM
same,TGI,[19],> 100 µM
same,TGI,[20],> 100 µM
same,TGI,[21],> 100 µM
same,TGI,[22],> 100 µM
same,TGI,[23],> 100 µM
same,TGI,[24],> 100 µM
same,TGI,[25],> 100 µM
same,TGI,[26],> 100 µM
same,TGI,[27],> 100 µM
same,TGI,[28],> 100 µM
same,TGI,[29],> 100 µM
same,TGI,[31],> 100 µM
same,TGI,[32],> 100 µM
same,TGI,[33],> 100 µM
same,TGI,[34],> 100 µM
same,TGI,[35],> 100 µM
same,TGI,[37],> 100 µM
same,TGI,[38],> 100 µM
same,TGI,[39],> 100 µM
same,TGI,[40],> 100 µM
same,TGI,[41],> 100 µM
same,TGI,[59],> 100 µM
same,TGI,[42],> 100 µM
same,TGI,[43],> 100 µM
same,TGI,[44],> 100 µM
same,TGI,[45],> 100 µM
same,TGI,[47],> 100 µM
same,TGI,[48],> 100 µM
same,TGI,[49],> 100 µM
same,TGI,[50],> 100 µM
same,TGI,[51],> 100 µM
same,TGI,[52],> 100 µM
same,TGI,[54],> 100 µM
same,TGI,[55],> 100 µM
same,TGI,[56],> 100 µM
